Measurements published in PubChem BioAssay AID248 (DTP/NCI, 2004).
Where “and” joins values, the source holds several entries; their conditions need not be identical. Identical values can stand only once. Toxic doses and inconclusive results are not listed. Rule as the data show it: active = T/C of 150% or more; inactive = T/C below 125%.

Test system: L1210 leukemia ip in BDF1 mice, survival T/C
Experiment: NCI In Vivo Anticancer Drug Screen. Data for tumor model L1210 Leukemia (intraperitoneal) in B6D2F1 (BDF1) mice
Conditions: endpoint: mean survival time, higher = longer survival
How it was run: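 Tumor cells were implanted, animals were treated, and survival was followed. The result divides the treated measurement by the vehicle-control measurement.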

[1] = dose: 100.0 mg/kg/injection, schedule: Q04DX003 (ip), vehicle: saline with Tween-80
[2] = dose: 200.0 mg/kg/injection, schedule: Q04DX003 (ip), vehicle: saline with Tween-80
[3] = dose: 400.0 mg/kg/injection, schedule: Q04DX003 (ip), vehicle: saline with Tween-80
[4] = dose: 100.0 mg/kg/injection, schedule: Q04DX002 (ip), vehicle: saline with Tween-80
[5] = dose: 200.0 mg/kg/injection, schedule: Q04DX002 (ip), vehicle: saline with Tween-80
[6] = dose: 400.0 mg/kg/injection, schedule: Q04DX002 (ip), vehicle: saline with Tween-80
[7] = dose: 100.0 mg/kg/injection, schedule: Q01DX009 (ip), vehicle: saline with Tween-80
[8] = dose: 200.0 mg/kg/injection, schedule: Q01DX009 (ip), vehicle: saline with Tween-80
[9] = dose: 400.0 mg/kg/injection, schedule: Q01DX009 (ip), vehicle: saline with Tween-80
[10] = dose: 100.0 mg/kg/injection, schedule: Q04DX003 (ip), vehicle: saline
[11] = dose: 200.0 mg/kg/injection, schedule: Q04DX003 (ip), vehicle: saline
[12] = dose: 400.0 mg/kg/injection, schedule: Q04DX003 (ip), vehicle: saline
[13] = dose: 100.0 mg/kg/injection, schedule: Q01DX009 (ip), vehicle: Klucel (hydroxypropylcellulose) (HPC)
[14] = dose: 100.0 mg/kg/injection, schedule: Q04DX003 (ip), vehicle: Klucel (hydroxypropylcellulose) (HPC)
[15] = dose: 200.0 mg/kg/injection, schedule: Q01DX009 (ip), vehicle: Klucel (hydroxypropylcellulose) (HPC)
[16] = dose: 200.0 mg/kg/injection, schedule: Q04DX003 (ip), vehicle: Klucel (hydroxypropylcellulose) (HPC)
[17] = dose: 400.0 mg/kg/injection, schedule: Q04DX003 (ip), vehicle: Klucel (hydroxypropylcellulose) (HPC)

Measured: T/C

CC(C)(c1ccc(O)cc1)c1ccc(O)cc1
inactive: [1] 96 % of control | [2] 87 % of control | [3] 91 % of control

CSc1n[nH]c(N=[N+]=[N-])n1
inactive: [4] 104 % of control | [5] 115 % of control | [6] 104 % of control

CC(C)CC1NC(=O)C(NC(=O)C(Cc2ccccc2)N(C)C)C(C(C)C)Oc2ccc(cc2)/C=C\NC1=O (stereo not given)
inactive: dose: 50.0 mg/kg/injection, schedule: Q01DX001 (ip), vehicle: Klucel (hydroxypropylcellulose) (HPC) 90 % of control | dose: 100.0 mg/kg/injection, schedule: Q01DX001 (ip), vehicle: Klucel (hydroxypropylcellulose) (HPC) 90 % of control | dose: 200.0 mg/kg/injection, schedule: Q01DX001 (ip), vehicle: Klucel (hydroxypropylcellulose) (HPC) 93 % of control

NC(=O)c1ccccc1NC(=O)Nc1ccc([N+](=O)[O-])cc1Cl
inactive: [7] 98 % of control | [1] 95 % of control | [8] 102 % of control | [2] 96 % of control | [9] 98 % of control | [3] 95 % of control

O=C(NCc1ccco1)Nc1ccccc1Cl
inactive: dose: 155.0 mg/kg/injection, schedule: Q01DX Z (ip), vehicle: methylcellulose (MC) 100 % of control | dose: 233.0 mg/kg/injection, schedule: Q01DX Z (ip), vehicle: methylcellulose (MC) 100 % of control | dose: 350.0 mg/kg/injection, schedule: Q01DX Z (ip), vehicle: methylcellulose (MC) 94 % of control

CCCOC(=O)Nc1cccc(OC(=O)NC)c1
inactive: [1] 105 % of control | [2] 94 % of control | [3] 96 % of control

CCn1c2ccccc2c2cc(/C=C\[N+](=O)[O-])ccc21
inactive: dose: 100.0 mg/kg/injection, schedule: Q04DX002 (ip), vehicle: Klucel (hydroxypropylcellulose) (HPC) 91 % of control | dose: 200.0 mg/kg/injection, schedule: Q04DX002 (ip), vehicle: Klucel (hydroxypropylcellulose) (HPC) 94 % of control | dose: 400.0 mg/kg/injection, schedule: Q04DX002 (ip), vehicle: Klucel (hydroxypropylcellulose) (HPC) 97 % of control

O=C(Nc1ccc(N(CCCl)CCCl)cc1)c1ccc([N+](=O)[O-])cc1
inactive: dose: 50.0 mg/kg/injection, schedule: Q04DX002 (ip), vehicle: saline 104 % of control | dose: 100.0 mg/kg/injection, schedule: Q04DX002 (ip), vehicle: saline 95 % of control | dose: 200.0 mg/kg/injection, schedule: Q04DX002 (ip), vehicle: saline 117 % of control | dose: 400.0 mg/kg/injection, schedule: Q04DX002 (ip), vehicle: saline 114 % of control

CCOCCOCCCNCc1cnc2nc(N)nc(N)c2n1
inactive: dose: 10.0 mg/kg/injection, schedule: Q01DX009 (ip), vehicle: saline 97 % of control | dose: 20.0 mg/kg/injection, schedule: Q01DX009 (ip), vehicle: saline 103 % of control | dose: 40.0 mg/kg/injection, schedule: Q01DX009 (ip), vehicle: saline 103 % of control

CCOC(=O)/C(C(=O)c1ccccc1)=C(\OC(=O)c1ccccc1)c1ccccc1
inactive: dose: 50.0 mg/kg/injection, schedule: Q01DX001 (ip), vehicle: carboxymethylcellulose (CMC) 96 % of control | dose: 100.0 mg/kg/injection, schedule: Q01DX001 (ip), vehicle: carboxymethylcellulose (CMC) 102 % of control | dose: 200.0 mg/kg/injection, schedule: Q01DX001 (ip), vehicle: carboxymethylcellulose (CMC) 91 % of control

C=CC(C)CCCC(C)C (stereo not given)
inactive: [10] 91 % of control | [11] 97 % of control | [12] 91 % of control

CN1c2cccc[c]2[Sn]([CH3])([CH3])[c]2ccccc21
inactive: dose: 100.0 mg/kg/injection, schedule: Q01DX001 (ip), vehicle: other 92 % of control | dose: 200.0 mg/kg/injection, schedule: Q01DX001 (ip), vehicle: other 92 % of control | dose: 400.0 mg/kg/injection, schedule: Q01DX001 (ip), vehicle: other 108 % of control

CCCCCC#CC(=O)O
inactive: [13] 105 % of control | [14] 98 % of control | [15] 106 % of control | [16] 98 % of control | dose: 400.0 mg/kg/injection, schedule: Q01DX009 (ip), vehicle: Klucel (hydroxypropylcellulose) (HPC) 90 % of control | [17] 109 % of control

CCOC(=O)c1ccc(NC(=O)Nc2cccc(O)c2)cc1
inactive: dose: 100.0 mg/kg/injection, schedule: Q01DX001 (ip), vehicle: saline with Tween-80 89 % of control | [7] 95 % of control | [4] 99 % of control and 110 % of control | [1] 95 % of control | dose: 200.0 mg/kg/injection, schedule: Q01DX001 (ip), vehicle: saline with Tween-80 98 % of control | [8] 99 % of control | [5] 99 % of control and 106 % of control | [2] 93 % of control | dose: 400.0 mg/kg/injection, schedule: Q01DX001 (ip), vehicle: saline with Tween-80 94 % of control | [9] 95 % of control | [6] 103 % of control and 104 % of control | [3] 94 % of control

COC(=O)C1=C(C(=O)OC)C2CCC1O2
inactive: dose: 100.0 mg/kg/injection, schedule: Q01DX009 (ip), vehicle: saline 112 % of control | [4] 105 % of control | dose: 200.0 mg/kg/injection, schedule: Q01DX009 (ip), vehicle: saline 106 % of control | [5] 101 % of control | dose: 400.0 mg/kg/injection, schedule: Q01DX009 (ip), vehicle: saline 95 % of control | [6] 94 % of control

CC1(C)OC2OC(COC(=O)c3ccccc3)C(OC(=O)Nc3ccccc3)C2O1 (stereo not given)
inactive: [1] 93 % of control | [2] 98 % of control | [3] 97 % of control

O=C(O)c1cc([N+](=O)[O-])c(C(=O)O)c([N+](=O)[O-])c1
inactive: dose: 75.0 mg/kg/injection, schedule: Q01DX001 (ip), vehicle: other 94 % of control | dose: 150.0 mg/kg/injection, schedule: Q01DX001 (ip), vehicle: other 95 % of control | dose: 300.0 mg/kg/injection, schedule: Q01DX001 (ip), vehicle: other 96 % of control

CC(=O)NC(NNC(NC(C)=O)(c1ccccc1)c1ccccc1)(c1ccccc1)c1ccccc1
inactive: [10] 105 % of control | [11] 102 % of control | [12] 92 % of control

CC1(C(N)=O)OC12CCCCC2CCC(=O)O (stereo not given)
inactive: [14] 102 % of control | [16] 93 % of control | [17] 93 % of control

CCCCCCCCC(C)NCCOC(=O)c1ccc(N)cc1 (stereo not given)
inactive: dose: 9.38 mg/kg/injection, schedule: Q01DX001 (ip), vehicle: other 102 % of control | dose: 18.75 mg/kg/injection, schedule: Q01DX001 (ip), vehicle: other 101 % of control | dose: 37.5 mg/kg/injection, schedule: Q01DX001 (ip), vehicle: other 98 % of control

CC(C)(C)CC(C)(C)O
inactive: dose: 100.0 mg/kg/injection, schedule: Q01DX001 (ip), vehicle: saline 102 % of control | dose: 200.0 mg/kg/injection, schedule: Q01DX001 (ip), vehicle: saline 102 % of control | dose: 400.0 mg/kg/injection, schedule: Q01DX001 (ip), vehicle: saline 96 % of control

O=Nc1ccc(O)c2ccccc12
inactive: dose: 50.0 mg/kg/injection, schedule: Q01DX009 (ip), vehicle: Klucel (hydroxypropylcellulose) (HPC) 100 % of control | [13] 100 % of control | [15] 95 % of control
